Assay results published in patent US20150218172A1, “Pyrrolo[2,3-D]Pyrimidine Tropomyosin-Related Kinase Inhibitors” (PFIZER LIMITED, priority 2012, published 2015).

Biological target: T1, TrkA (Homo sapiens, UniProt P04629)
T1 construct: aa 441-796; His; purchased Invitrogen PV3144
Test: Isolated TRK enzyme assay (HTRF KinEASE-TK kit), PV3144 TrkA enzyme assay
Type: biochemical
Details: not given
Method in brief: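 Recombinant His-tagged cytoplasmic domain of human TrkA, preactivated with ATP for 20 min, then 20 min with compound before biotinylated TK substrate (1 uM final) at room temperature. HTRF read at 665/620 nm; % inhibition normalised to reference-compound and DMSO controls, IC50 from sigmoid fit, mean of replicates.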

T1 sequence (P04629 441-796): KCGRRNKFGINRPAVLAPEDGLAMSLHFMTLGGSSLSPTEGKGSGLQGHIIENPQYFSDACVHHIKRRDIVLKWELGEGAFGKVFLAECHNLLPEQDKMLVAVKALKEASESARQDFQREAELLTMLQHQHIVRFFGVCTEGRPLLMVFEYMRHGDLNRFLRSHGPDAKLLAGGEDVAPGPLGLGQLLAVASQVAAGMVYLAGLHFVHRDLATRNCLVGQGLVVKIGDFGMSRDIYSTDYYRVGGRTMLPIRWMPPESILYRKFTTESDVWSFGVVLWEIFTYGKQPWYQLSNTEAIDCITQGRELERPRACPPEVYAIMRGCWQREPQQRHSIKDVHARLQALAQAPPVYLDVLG

Compound	IC50 [nM]
Cc1cc(C)n(CC(=O)Nc2cc(C(=O)c3cn(CC4CC4)c4ncncc34)ccn2)n1 [Example 176, N-(4-{[7-(Cyclopropylmethyl)-7H-pyrrolo[2,3-d]pyrimidin-5-yl]carbonyl}pyridin-2-yl)-2-(3,5-dimethyl-1H-pyrazol-1-yl)acetamide]	107

Same assay, conditions: PV3144 TrkA enzyme assay, recombinant His-tagged cytoplasmic domain aa 441-796, 4 nM enzyme, 40 uM ATP; arithmetic mean where more than one reading; read-out: Trka enzyme (IC50)

IC50 [nM]	Compound
155	CC1(n2cc(C(=O)c3cc(NC(=O)Cc4ccc(Cl)cn4)ccn3)c3cncnc32)COC1 [Example 168, 2-(5-chloropyridin-2-yl)-N-(2-{[7-(3-methyloxetan-3-yl)-7H-pyrrolo[2,3-d]pyrimidin-5-yl]carbonyl}pyridin-4-yl)acetamide]
459	CC1(n2cc(C(=O)c3cc(NC(=O)Cc4ccc(C#N)cc4)ccn3)c3cncnc32)COC1 [Example 169, 2-(4-cyanophenyl)-N-(2-{[7-(3-methyloxetan-3-yl)-7H-pyrrolo[2,3-d]pyrimidin-5-yl]carbonyl}pyridin-4-yl)acetamide]
99.8	CC1(n2cc(C(=O)c3cc(NC(=O)Cc4ccc(C(F)(F)F)c(F)c4)ccn3)c3cncnc32)COC1 [Example 170, 2-[3-fluoro-4-(trifluoromethyl)phenyl]-N-(2-{[7-(3-methyloxetan-3-yl)-7H-pyrrolo[2,3-d]pyrimidin-5-yl]carbonyl}pyridin-4-yl)acetamide]
255	CC1(n2cc(C(=O)c3cc(NC(=O)Cn4cc(C(F)(F)F)nn4)ccn3)c3cncnc32)COC1 [Example 171, N-(2-{[7-(3-methyloxetan-3-yl)-7H-pyrrolo[2,3-d]pyrimidin-5-yl]carbonyl}pyridin-4-yl)-2-[4-(trifluoromethyl)-1H-1,2,3-triazol-1-yl]acetamide]
1080	CC1(n2cc(C(=O)c3cc(NC(=O)Cc4ccc(F)cn4)ccn3)c3cncnc32)COC1 [Example 172, 2-(5-fluoropyridin-2-yl)-N-(2-{[7-(3-methyloxetan-3-yl)-7H-pyrrolo[2,3-d]pyrimidin-5-yl]carbonyl}pyridin-4-yl)acetamide]
25.4	CC(C)(C)n1cc(C(=O)c2ccnc(NC(=O)Cc3ccc(C#N)cc3)c2)c2cncnc21 [Example 173, N-{4-[(7-tert-butyl-7H-pyrrolo[2,3-d]pyrimidin-5-yl)carbonyl}pyridin-2-yl]-2-(4-cyanophenyl)acetamide]
27.3	Cc1cc(C)n(CC(=O)Nc2cc(C(=O)c3cn(C(C)(C)C)c4ncncc34)ccn2)n1 [Example 174, N-{4-[(7-tert-butyl-7H-pyrrolo[2,3-d]pyrimidin-5-yl)carbonyl}pyridin-2-yl]-2-(3,5-dimethyl-1H-pyrazol-1-yl)acetamide]
407	N#Cc1ccc(CC(=O)Nc2cc(C(=O)c3cn(C4CC4)c4ncncc34)ccn2)cc1 [Example 175, 2-(4-cyanophenyl)-N-{4-[(7-cyclopropyl-7H-pyrrolo[2,3-d]pyrimidin-5-yl)carbonyl]pyridin-2-yl}acetamide]
617	Cc1cc(C)n(CC(=O)Nc2cc(C(=O)c3cn(CC4(O)CC4)c4ncncc34)ccn2)n1 [Example 177, 2-(3,5-Dimethyl-1H-pyrazol-1-yl)-N-[4-({7-[(1-hydroxycyclopropyl)methyl]-7H-pyrrolo[2,3-d]pyrimidin-5-yl}carbonyl)pyridin-2-yl]acetamide]

Continued, compound first:

Compound	IC50 [nM]
CC(C)n1cc(C(=O)c2ccnc(NC(=O)Cc3ccccn3)c2)c2cncnc21 [Example 163, N-(4-{[7-(propan-2-yl)-7H-pyrrolo[2,3-d]pyrimidin-5-yl]carbonyl}pyridin-2-yl)-2-(pyridin-2-yl)acetamide]	3620
CC(C)c1cn(CC(=O)Nc2cc(C(=O)c3cn(C(C)C)c4ncncc34)ccn2)nn1 [Example 164, N-(4-{[7-(propan-2-yl)-7H-pyrrolo[2,3-d]pyrimidin-5-yl]carbonyl}pyridin-2-yl)-2-[4-(propan-2-yl)-1H-1,2,3-triazol-1-yl]acetamide]	31.8
COc1cc(C(=O)c2cn(C(C)C)c3ncncc23)cc(NC(=O)Cc2ccc(C#N)cc2)n1 [Example 165, 2-(4-cyanophenyl)-N-(6-methoxy-4-{[7-(propan-2-yl)-7H-pyrrolo[2,3-d]pyrimidin-5-yl]carbonyl}pyridin-2-yl)acetamide]	1040
CC1(n2cc(C(=O)c3cc(NC(=O)Cc4cccc(C(F)(F)F)c4)ccn3)c3cncnc32)COC1 [Example 166, N-(2-{[7-(3-methyloxetan-3-yl)-7H-pyrrolo[2,3-d]pyrimidin-5-yl]carbonyl}pyridin-4-yl)-2-[3-(trifluoromethyl)phenyl]acetamide]	52.9
CC1(n2cc(C(=O)c3cc(NC(=O)Cc4ccc(C(F)(F)F)cc4)ccn3)c3cncnc32)COC1 [Example 167, N-(2-{[7-(3-methyloxetan-3-yl)-7H-pyrrolo[2,3-d]pyrimidin-5-yl]carbonyl}pyridin-4-yl)-2-[4-(trifluoromethyl)phenyl]acetamide]	72.9
N-(2-{[7-(propan-2-yl)-7H-pyrrolo[2,3-d]pyrimidin-5-yl]carbonyl}pyridin-4-yl)-2-[4-(trifluoromethyl)-1H-1,2,3-triazol-1-yl]acetamide [Example 80]	150
